Test system: Wistar strain rats
Assay: Anti-ulcer activity, Indomethacin-induced ulcers, oral (ED50)
Assay type: in vivo, Wistar strain rats (male)
Conditions: Rattus norvegicus, 1 h before Indomethacin 25 mg/kg p.o., ulcer lengths after 5 h, dose giving 50% of control
Source text: On the other hand, Indomethacin alone was orally administered to a control group at the same dose.

Point of comparison: `CN(C)C(=O)CCC(NC(=O)/C=C/c1ccco1)C(=O)N(C)C` (racemic) [Test Compound 3, DL-2-[β-(2-furyl)acrylamido]-N^1,N^1,N^5,N^5-tetramethyl-pentane-1,5-diamide], ED50 10.8 mg/kg. Against it:
- CCCN(CCC)C(=O)C(CCC(=O)NC)NC(=O)/C=C/c1ccco1 (racemic) [Test Compound 1, DL-2-[β-(2-furyl)acrylamido]-N^5-methyl-N^1,N^1-di(n-propyl)pentane-1,5-diamide] — 1.6-fold lower, 6.6 mg/kg
- CCCN(CCC)C(=O)C(CCC(=O)N(C)C)NC(=O)/C=C/c1ccco1 (racemic) [Test Compound 2, DL-2-[β-(2-furyl)acrylamido]-N^5,N^5-dimethyl-N^1,N^1-di(n-propyl)-pentane-1,5-diamide] — within 1.5-fold, 9 mg/kg
- CCCN(CCC)C(=O)C(CCC(=O)O)NC(=O)c1ccccc1 (stereo not shown) [Proglumide, reference compound] — 74-fold higher, 800 mg/kg

Test system: Wistar strain rats
Assay: Anti-ulcer activity, Indomethacin-induced ulcers, intraperitoneal (inhibition percentage)
Assay type: in vivo, Wistar strain rats (male)
Conditions: 50 mg/kg intraperitoneal; 1 h before Indomethacin 25 mg/kg p.o.; ulcer lengths after 5 h
Description: On the other hand, Indomethacin alone was orally administered to a control group at the same dose. After 5 hours, the stomach of each rat was removed, and then the sum total of the lengths of the ulcers was measured and compared with that measured for the control group, whereby the inhibition percentage was calculated.

Point of comparison: “DL-N^1,N^5-bis(3-acetoxypropyl)-2-[β-(2-furyl)acrylamido]pentane-1,5-diamide [Test Compound 19]”, Inhibition percentage 40%. Against it:
- DL-N^5 -(3-acetoxypropyl)-2-[β-(2-furyl)acrylamido]-N^1 -n-propylpentane-1,5-diamide [Test Compound 20] — higher, 52%

Same assay, conditions: Rattus norvegicus, ip; 50 mg/kg intraperitoneal; 1 h before Indomethacin 25 mg/kg p.o.; ulcer lengths after 5 h

Point of comparison: `CCCCNC(=O)CCC(NC(=O)/C=C/c1ccco1)C(=O)NCCCC` (stereo not shown) [compound 17], inhibition in vivo at 50 mg/kg 32.1%. Against it:
- CCCN(CCC)C(=O)C(CCC(=O)O)NC(=O)c1ccccc1 (stereo not shown) [Proglumide, reference compound] — lower, 0%
- CCCN(CCC)C(=O)[C@H](CCC(=O)N(C)C)NC(=O)C1CCC(CN)CC1 (stereo partly shown) [compound 9] — higher, 59%
- CCCN(CCC)C(=O)[C@H](CCC(=O)N(C)C)NC(=O)CN1CCN(C)CC1 [compound 10] — higher, 55%
- CCCN(CCC)C(=O)[C@H](CCC(=O)N(C)C)NC(=O)CCN1CCN(C)CC1 [compound 11] — higher, 41%
- CCCN(CCC)C(=O)[C@H](CCC(=O)N(C)C)NC(=O)CCCN1CCN(C)CC1 [compound 12] — higher, 47%
- CCCN(CCC)C(=O)[C@H](CCC(=O)N(C)C)NC(=O)CCCN1CCN(CC)CC1 [compound 13] — higher, 55%
- CCCN(CCC)C(=O)[C@H](CCC(=O)N(C)C)NC(=O)CCCN1CCN(c2ccccc2)CC1 [compound 14] — higher, 52%
- CCCN(CCC)C(=O)[C@H](CCC(=O)N(C)C)NC(=O)CCCN1CCC(NC(=O)OCc2ccccc2)CC1 [compound 15] — higher, 51%
- CCCN(CCC)C(=O)[C@H](CCC(=O)N(C)C)NC(=O)/C=C/C(=O)c1ccc(OC)c(OC)c1 [compound 16] — higher, 59%
- CC(C)CNC(=O)CCC(NC(=O)/C=C/c1ccco1)C(=O)NCC(C)C (stereo not shown) [compound 18] — higher, 37.9%
- CC(=O)OCCCNC(=O)CCC(NC(=O)/C=C/c1ccco1)C(=O)NCCCOC(C)=O (stereo not shown) [compound 19] — higher, 53%
- CCCNC(=O)C(CCC(=O)NCCCOC(C)=O)NC(=O)/C=C/c1ccco1 (stereo not shown) [compound 20] — higher, 53.5%
- CCCNC(=O)C(CCC(N)=O)NC(=O)/C=C/c1ccco1 (stereo not shown) [compound 21] — higher, 70.9%
- O=C(/C=C/c1ccco1)NC(CCC(=O)NCCCl)C(=O)NCCCl (stereo not shown) [compound 22] — higher, 56%
- CC(C)NC(=O)CCC(NC(=O)/C=C/c1ccco1)C(=O)NC(C)C (stereo not shown) [compound 23] — higher, 52%

Test system: not listed separately
Assay: Acute toxicity, intraperitoneal
Conditions: mouse, in vivo, ip
Description: Each of the compounds of the Test Compound Nos. 2, 3, 4, 5, 6, 17, 23, 30 and 31 was intraperitoneally administered to ddY strain mice (.male., body wt. 23±2 g, 10 mice per group), and the LD50 values were measured to find that all of them were 600 mg/kg or more.

In the case of `CCCN(CCC)C(=O)C(CCC(=O)N(C)C)NC(=O)/C=C/c1cc2ccccc2o1` (racemic) [Test Compound 5, DL-2-[β-(2-benzofuryl)acrylamido]-N^5,N^5-dimethyl-N^1,N^1-di(n-propyl)-pentane-1,5-diamide], the LD50 is reported as ≥ 600 mg/kg.

Same assay, conditions: mouse, in vivo, ip; intraperitoneal, ddY male mice

`CCCN(CCC)C(=O)C(CCC(=O)N(C)C)NC(=O)/C=C/c1ccco1` (racemic) [Test Compound 2, DL-2-[β-(2-furyl)acrylamido]-N^5,N^5-dimethyl-N^1,N^1-di(n-propyl)-pentane-1,5-diamide] and `CCCN(CCC)C(=O)CCC(NC(=O)/C=C/c1ccco1)C(=O)N(CCC)CCC` (stereo not shown) [compound 30] cannot be ordered by LD50: ≥ 600 mg/kg for the first, ≥ 600 mg/kg for the second.

`CN(C)C(=O)CCC(NC(=O)/C=C/c1ccco1)C(=O)N(C)C` (racemic) [Test Compound 3, DL-2-[β-(2-furyl)acrylamido]-N^1,N^1,N^5,N^5-tetramethyl-pentane-1,5-diamide] and `CN(C)C(=O)CCC(NC(=O)/C=C/c1cc2ccccc2o1)C(=O)N(C)C` (racemic) [Test Compound 4] cannot be ordered by LD50: ≥ 600 mg/kg for the first, ≥ 600 mg/kg for the second.

`CN(C)C(=O)CCC(NC(=O)/C=C/c1cc2ccccc2o1)C(=O)N1CCCCC1` (racemic) [Test Compound 6] and `CC(C)NC(=O)CCC(NC(=O)/C=C/c1ccco1)C(=O)NC(C)C` (stereo not shown) [compound 23] cannot be ordered by LD50: ≥ 600 mg/kg for the first, ≥ 600 mg/kg for the second.

`CCCCNC(=O)CCC(NC(=O)/C=C/c1ccco1)C(=O)NCCCC` (stereo not shown) [compound 17] and `CCCCN(CCCC)C(=O)CCC(NC(=O)/C=C/c1ccco1)C(=O)N(CCCC)CCCC` (stereo not shown) [compound 31] cannot be ordered by LD50: ≥ 600 mg/kg for the first, ≥ 600 mg/kg for the second.

From patent publication US4610983A, “N-acyl acidic amino acid diamide derivative, a salt thereof, and an anti-ulcer agent containing the same” (Toyama Chemical Co., Ltd., priority 1984, dated 1986)
